# Reference: paper PMC4330362, “The ATP-mediated formation of the YgjD–YeaZ–YjeE complex is required for the biosynthesis of tRNA t^6A in Escherichia coli” (Nucleic Acids Research, 2015)
# B1: YgjD (TsaD) (enzyme, Escherichia coli K-12, UniProt P05852 1-337, looked up)
# chain: MRVLGIETSCDETGIAIYDDEKGLLANQLYSQVKLHADYGGVVPELASRDHVRKTVPLIQAALKESGLTAKDIDAVAYTAGPGLVGALLVGATVGRSLAFAWDVPAIPVHHMEGHLLAPMLEDNPPEFPFVALLVSGGHTQLISVTGIGQYELLGESIDDAAGEAFDKTAKLLGLDYPGGPLLSKMAAQGTAGRFVFPRPMTDRPGLDFSFSGLKTFAANTIRDNGTDDQTRADIARAFEDAVVDTLMIKCKRALDQTGFKRLVMAGGVSANRTLRAKLAEMMKKRRGEVFYARPEFCTDNGAMIAYAGMVRFKAGATADLGVSVRPRWPLAELPAA
# notes: YgjD (TsaD), Escherichia coli K-12, 337 residues; gene amplified from genomic DNA, cloned in pET9a; Alone it is a homodimer by gel filtration and SAXS; also called Ec–YgjD; source: E. coli BL21(DE3), purified (details in the Supplementary Materials)
# How the values were obtained:
# YjeE [1] = molecular target: T1, YjeE (Escherichia coli, UniProt P0AF67, W109A); assay: ITC; assay type: binding
# T1 construct: gene tsaE; full length, C-terminal Strep II tag, expressed in E. coli BL21(DE3) from pET28a; monomer-dimer equilibrium
# YjeE [2] = molecular target: T2, YjeE (Escherichia coli, UniProt P0AF67); assay: ITC; assay type: binding
# T2 construct: gene tsaE; full length, C-terminal Strep II tag, expressed in E. coli BL21(DE3) from pET28a; monomer-dimer equilibrium
# YgjD–YeaZ [3] = molecular target: T3, YgjD–YeaZ (Escherichia coli, UniProt P05852+P76256); assay: crystal structure […] A; assay type: binding; details: cocrystallised with ATP and MgCl2; two ADP: YgjD active site (Mg2+, Fe) and YgjD-YeaZ interface; no heat signal by ITC
# T3 construct: gene tsaD; 1:1 heterodimer of full-length YgjD (337 residues) and YeaZ (231 residues), each C-terminally 6xHis tagged, expressed in E. coli BL21(DE3); nucleotide sites in the YgjD active site and at the YgjD-YeaZ interface
# YgjD–YeaZ [4] = molecular target: T3, YgjD–YeaZ; assay: ITC; assay type: binding
# YgjD = molecular target: T4, YgjD (Escherichia coli, UniProt P05852); assay: ITC; assay type: binding
# T4 construct: gene tsaD; full length (337 residues), C-terminal 6xHis tag, expressed in E. coli BL21(DE3) from pET9a; homodimer in solution
# YgjD–YeaZ [5] = molecular target: T5, YgjD–YeaZ (Escherichia coli, UniProt P05852+P76256, P05852:V85E); assay: crystal structure; assay type: binding; details: crystallised in presence of ATP; no nucleotide at the interface
# T5 construct: gene tsaD; 1:1 heterodimer of full-length YgjD (337 residues) and YeaZ (231 residues), each C-terminally 6xHis tagged, expressed in E. coli BL21(DE3); nucleotide sites in the YgjD active site and at the YgjD-YeaZ interface
# YjeE [6] = molecular target: T6, YjeE (Escherichia coli, UniProt P0AF67, Y82A); assay: ITC; assay type: binding
# T6 construct: gene tsaE; full length, C-terminal Strep II tag, expressed in E. coli BL21(DE3) from pET28a; monomer-dimer equilibrium
# [7] = molecular target: YeaZ (Salmonella typhimurium) (UniProt Q7CQE0); details: cited from earlier work
# [8] = test system: Nc1ncnc2c1ncn2[C@@H]1O[C@H](COP(=O)(O)OP(=O)(O)OP(=O)(O)O)[C@@H](O)[C@H]1O; assay: purified protein; details: 50 mM HEPES pH 7.5, 20 °C, YjeE at 2 molar equivalents
# [9] = molecular target: the molecule itself; assay: SEC; HiLoad 16/60 Superdex 75 pg; single proteins and equimolar mixture
molecule,measurement,setting,value
Nc1ncnc2c1ncn2[C@@H]1O[C@H](COP(=O)(O)OP(=O)(O)O)[C@@H](O)[C@H]1O [ADP],Kd,YjeE [1],4.83 ± 0.022 µM
same,Kd,YjeE [2],6.54 ± 0.053 µM
same,crystal structure 2.3 A,YgjD–YeaZ [3],An ADP molecule could unequivocally fit the density
Nc1ncnc2c1ncn2[C@@H]1O[C@H](COP(=O)(O)CP(=O)(O)OP(=O)(O)O)[C@@H](O)[C@H]1O [AMPCPP],Kd,YgjD–YeaZ [4],0.7 ± 0.011 µM
same,Kd,YgjD,1.62 ± 0.088 µM
Nc1ncnc2c1ncn2[C@@H]1O[C@H](COP(=O)(O)OP(=O)(O)OP(=O)(O)O)[C@@H](O)[C@H]1O [ATP],crystal structure,YgjD–YeaZ [5],YgjD^V85E(ATP)–YeaZ crystal structures under accession number
Nc1ncnc2c1ncn2[C@@H]1O[C@H](CO[P@](=O)(O)O[P@](=O)(O)O[P@@](=O)(O)S)[C@@H](O)[C@H]1O [ATPγS],Kd,YjeE [6],8.9 ± 0.013 µM
same,Kd,YjeE [2],20.4 ± 1.32 µM
YgjD (from UniProt P40731),Kd,[7],0.3 µM
YgjD–YeaZ–2xYjeE complex (Escherichia coli K-12),Km,[8],644 µM
same,kcat,[8],0.4 s⁻¹
B1,stoichiometry N,[9],2
